Where “and” joins values, the source holds several entries; their conditions need not be identical. Identical values can stand only once.
Experiment: molar heat capacity at constant volume
Conditions: Vacuum adiabatic calorimetry

CC(C)O [propan-2-ol]
Fluid (supercritical or subcritical phases)
Conditions | molar heat capacity at constant volume
506.89 K, Mass density=324.5 kg/m3 | 348.43 J/K/mol and 347.05 J/K/mol
506.89 K, Mass density=343.1 kg/m3 | 330.28 J/K/mol
506.97 K, Mass density=329.2 kg/m3 | 330.22 J/K/mol
506.98 K, Mass density=288.99 kg/m3 | 360.33 J/K/mol
506.98 K, Mass density=324.5 kg/m3 | 352.64 J/K/mol
506.98 K, Mass density=343.1 kg/m3 | 333.83 J/K/mol
507.07 K, Mass density=288.99 kg/m3 | 365.74 J/K/mol
507.07 K, Mass density=324.5 kg/m3 | 346.75 J/K/mol
507.08 K, Mass density=343.1 kg/m3 | 331.96 J/K/mol
507.11 K, Mass density=329.2 kg/m3 | 342.54 J/K/mol
507.17 K, Mass density=288.99 kg/m3 | 355.1 J/K/mol
507.17 K, Mass density=293.3 kg/m3 | 358.29 J/K/mol
507.17 K, Mass density=324.5 kg/m3 | 351.56 J/K/mol
507.17 K, Mass density=343.1 kg/m3 | 333.89 J/K/mol
507.2 K, Mass density=329.2 kg/m3 | 339.6 J/K/mol
507.26 K, Mass density=288.99 kg/m3 | 361.53 J/K/mol
507.26 K, Mass density=324.5 kg/m3 | 348.79 J/K/mol
507.26 K, Mass density=343.1 kg/m3 | 336.65 J/K/mol
507.3 K, Mass density=329.2 kg/m3 | 339.42 J/K/mol
507.35 K, Mass density=293.3 kg/m3 | 367 J/K/mol
507.35 K, Mass density=324.5 kg/m3 | 351.56 J/K/mol
507.36 K, Mass density=343.1 kg/m3 | 338.58 J/K/mol
507.4 K, Mass density=329.2 kg/m3 | 335.93 J/K/mol
507.45 K, Mass density=293.3 kg/m3 | 363.82 J/K/mol
507.45 K, Mass density=324.5 kg/m3 | 357.02 J/K/mol
507.45 K, Mass density=343.1 kg/m3 | 335.69 J/K/mol
507.5 K, Mass density=329.2 kg/m3 | 343.02 J/K/mol
507.54 K, Mass density=293.3 kg/m3 | 371.39 J/K/mol
507.54 K, Mass density=324.5 kg/m3 | 349.09 J/K/mol
507.54 K, Mass density=343.1 kg/m3 | 337.79 J/K/mol
507.59 K, Mass density=329.2 kg/m3 | 338.94 J/K/mol
507.63 K, Mass density=293.3 kg/m3 | 367.06 J/K/mol
507.63 K, Mass density=324.5 kg/m3 | 353.72 J/K/mol
507.65 K, Mass density=343.1 kg/m3 | 339.78 J/K/mol
507.69 K, Mass density=329.2 kg/m3 | 354.86 J/K/mol
507.7 K, Mass density=329.2 kg/m3 | 347.95 J/K/mol
507.73 K, Mass density=293.3 kg/m3 | 369.4 J/K/mol
507.73 K, Mass density=324.5 kg/m3 | 360.99 J/K/mol
507.82 K, Mass density=274 kg/m3 | 385.09 J/K/mol
507.82 K, Mass density=293.3 kg/m3 | 371.39 J/K/mol
507.82 K, Mass density=324.5 kg/m3 | 358.53 J/K/mol
507.82 K, Mass density=343.1 kg/m3 | 338.76 J/K/mol
507.89 K, Mass density=329.2 kg/m3 | 352.76 J/K/mol
507.91 K, Mass density=274 kg/m3 | 385.33 J/K/mol
507.91 K, Mass density=293.3 kg/m3 | 375.83 J/K/mol
507.91 K, Mass density=324.5 kg/m3 | 365.2 J/K/mol
507.91 K, Mass density=343.1 kg/m3 | 340.98 J/K/mol
507.95 K, Mass density=343.1 kg/m3 | 342.54 J/K/mol and 212.44 J/K/mol
508.01 K, Mass density=234.3 kg/m3 | 436.29 J/K/mol
508.01 K, Mass density=255.8 kg/m3 | 424.87 J/K/mol
508.01 K, Mass density=274 kg/m3 | 393.86 J/K/mol
508.01 K, Mass density=293.3 kg/m3 | 380.52 J/K/mol
508.01 K, Mass density=324.5 kg/m3 | 363.27 J/K/mol
508.01 K, Mass density=343.1 kg/m3 | 205.52 J/K/mol
508.04 K, Mass density=329.2 kg/m3 | 358.17 J/K/mol
508.1 K, Mass density=234.3 kg/m3 | 442.3 J/K/mol
508.1 K, Mass density=255.8 kg/m3 | 425.65 J/K/mol
508.1 K, Mass density=266.3 kg/m3 | 412.31 J/K/mol
508.1 K, Mass density=274 kg/m3 | 396.93 J/K/mol
508.1 K, Mass density=281.9 kg/m3 | 391.7 J/K/mol
508.1 K, Mass density=293.3 kg/m3 | 381.6 J/K/mol
508.1 K, Mass density=324.5 kg/m3 | 367.06 J/K/mol
508.1 K, Mass density=343.1 kg/m3 | 191.64 J/K/mol
508.16 K, Mass density=329.2 kg/m3 | 363.76 J/K/mol and 218.14 J/K/mol
508.18 K, Mass density=329.2 kg/m3 | 208.53 J/K/mol
508.19 K, Mass density=234.3 kg/m3 | 447.71 J/K/mol
508.19 K, Mass density=255.8 kg/m3 | 429.38 J/K/mol
508.19 K, Mass density=266.3 kg/m3 | 417.66 J/K/mol
508.19 K, Mass density=274 kg/m3 | 404.38 J/K/mol
508.19 K, Mass density=281.9 kg/m3 | 398.49 J/K/mol
508.19 K, Mass density=288.99 kg/m3 | 390.74 J/K/mol
508.19 K, Mass density=293.3 kg/m3 | 383.29 J/K/mol
508.19 K, Mass density=324.5 kg/m3 | 370.25 J/K/mol
508.19 K, Mass density=343.1 kg/m3 | 187.98 J/K/mol
508.28 K, Mass density=234.3 kg/m3 | 453.36 J/K/mol
508.28 K, Mass density=255.8 kg/m3 | 438.99 J/K/mol
508.28 K, Mass density=266.3 kg/m3 | 426.19 J/K/mol
508.28 K, Mass density=274 kg/m3 | 414.84 J/K/mol
508.28 K, Mass density=281.9 kg/m3 | 409.07 J/K/mol
508.28 K, Mass density=288.99 kg/m3 | 395.61 J/K/mol
508.28 K, Mass density=293.3 kg/m3 | 391.22 J/K/mol
508.28 K, Mass density=324.5 kg/m3 | 371.75 J/K/mol and 221.39 J/K/mol
508.28 K, Mass density=329.2 kg/m3 | 195.91 J/K/mol
508.29 K, Mass density=343.1 kg/m3 | 181.07 J/K/mol
508.34 K, Mass density=324.5 kg/m3 | 214 J/K/mol
508.37 K, Mass density=329.2 kg/m3 | 192.6 J/K/mol
508.38 K, Mass density=234.3 kg/m3 | 464.9 J/K/mol
508.38 K, Mass density=255.8 kg/m3 | 446.27 J/K/mol
508.38 K, Mass density=266.3 kg/m3 | 435.27 J/K/mol

Liquid
Conditions | molar heat capacity at constant volume [J/K/mol]
507.95 K | 212.44
508.16 K | 218.14
508.28 K | 221.39

— the NIST ThermoML archive (doi:10.1016/j.jct.2019.03.023)
